Data on 1 compound can be found in patent US12564581B2, “Pyrazole pharmaceutical composition” (Intervet Inc., priority 2019, dated 2026).

The nature of data set [1]: Solubility of the compound in surfactant solutions. Format: physicochemical. From the text:
To increase solubility of the compound and promote increase bioavailability, a number of surfactants were screened. The table below lists the solubilities of 1-[(3R,4S)-4-cyanotetrahydropyran-3-yl]-3-[(2-fluoro-6-methoxy-4-pyridyl)amino]pyrazole-4-carboxamide in the tested surfactant solutions.

A further data set concerns cIL-31 induced pruritus. The following applies: with respect to placebo; similar magnitude to oclacitinib (Apoquel); from WO 2018/108969; cited from earlier work.

For orientation: solubility means the concentration that dissolves in the medium under given conditions. A low value points to little dissolved substance. On to `COc1cc(Nc2nn([C@H]3COCC[C@@H]3C#N)cc2C(N)=O)cc(F)n1` [compound of Formula (I), 1-[(3R,4S)-4-cyanotetrahydropyran-3-yl]-3-[(2-fluoro-6-methoxy-4-pyridyl)amino]pyrazole-4-carboxamide], for which the solubility came to 50.3 µg/mL in data set [1] (1% polysorbate (Tween 80) solution, aqueous with cosolvent or surfactant or cyclodextrin, 1% polysorbate (Tween 80)); 195 µg/mL in data set [1] (1% sodium lauryl sulfate (SLS) solution, aqueous with cosolvent or surfactant or cyclodextrin, 1% sodium lauryl sulfate (SLS)); 541 µg/mL in data set [1] (10% ELP solution, aqueous with cosolvent or surfactant or cyclodextrin, 10% ELP); 217 µg/mL in data set [1] (10% P407 solution, aqueous with cosolvent or surfactant or cyclodextrin, 10% P407); 108 µg/mL in data set [1] (10% Poloxamer 124 solution, aqueous with cosolvent or surfactant or cyclodextrin, 10% Poloxamer 124); 109 µg/mL in data set [1] (10% Poloxamer 188 solution, aqueous with cosolvent or surfactant or cyclodextrin, 10% Poloxamer 188). In addition, the solubility came out at 489 µg/mL in data set [1] (10% hydrogenated castor oil (RH40) solution, aqueous with cosolvent or surfactant or cyclodextrin, 10% hydrogenated castor oil (RH40)); 133 µg/mL in data set [1] (10% polyvinylpyrrolidone (PVP) solution, aqueous with cosolvent or surfactant or cyclodextrin, 10% polyvinylpyrrolidone (PVP)); 1420 µg/mL in data set [1] (30% HS15 solution, aqueous with cosolvent or surfactant or cyclodextrin, 30% HS15); 807 µg/mL in data set [1] (Oleoyl macrogol-6 / polyoxyl-6 glycerides (Labrafil M1944CS), oil or lipid); 99 µg/mL in data set [1] (aqueous with cosolvent or surfactant or cyclodextrin, 1% D-a-Tocopheryl polyethylene glycol 1000 succinate (TPGS)); 460 µg/mL in data set [1] (aqueous with cosolvent or surfactant or cyclodextrin, 10% polyoxyethylated 12-hydroxystearic acid (Solutol HS 15)). The compound further yielded a solubility in data set [1] (water) of 8 µg/mL. Moreover, in data set [1] (water), the “Water solubility (in words)” value is listed as “poorly water soluble”. Besides, the Suppression of pruritus result with cIL-31 induced pruritus is on record as “significantly suppressed pruritus”.
